{"source": "BigSolDB 2.1"}
{"molecule": "C=CC1=C(C(=O)O)N2C(=O)[C@@H](NC(=O)/C(=N\\OCC(=O)O)c3csc(N)n3)[C@H]2SC1.O.O.O", "values": [{"measurement": "solubility (mole fraction)", "setting": "in acetone, 278.15 K", "value": 0.00223}, {"measurement": "solubility (mole fraction)", "setting": "in acetone, 283.15 K", "value": 0.00276}, {"measurement": "solubility (mole fraction)", "setting": "in acetone, 288.15 K", "value": 0.00308}, {"measurement": "solubility (mole fraction)", "setting": "in acetone, 293.15 K", "value": 0.00346}, {"measurement": "solubility (mole fraction)", "setting": "in acetone, 298.15 K", "value": 0.004}, {"measurement": "solubility (mole fraction)", "setting": "in acetone, 303.15 K", "value": 0.0044}, {"measurement": "solubility (mole fraction)", "setting": "in acetone, 308.15 K", "value": 0.00518}, {"measurement": "solubility (mole fraction)", "setting": "in acetone, 313.15 K", "value": 0.00581}, {"measurement": "solubility (mole fraction)", "setting": "in acetone, 318.15 K", "value": 0.00701}, {"measurement": "solubility (mole fraction)", "setting": "in acetone, 323.15 K", "value": 0.00854}, {"measurement": "solubility (mole fraction)", "setting": "in ethanol, 278.15 K", "value": 0.00189}, {"measurement": "solubility (mole fraction)", "setting": "in ethanol, 283.15 K", "value": 0.0021}, {"measurement": "solubility (mole fraction)", "setting": "in ethanol, 288.15 K", "value": 0.00246}, {"measurement": "solubility (mole fraction)", "setting": "in ethanol, 293.15 K", "value": 0.00285}, {"measurement": "solubility (mole fraction)", "setting": "in ethanol, 298.15 K", "value": 0.00321}, {"measurement": "solubility (mole fraction)", "setting": "in ethanol, 303.15 K", "value": 0.0037}, {"measurement": "solubility (mole fraction)", "setting": "in ethanol, 308.15 K", "value": 0.00415}, {"measurement": "solubility (mole fraction)", "setting": "in ethanol, 313.15 K", "value": 0.00478}, {"measurement": "solubility (mole fraction)", "setting": "in ethanol, 318.15 K", "value": 0.00536}, {"measurement": "solubility (mole fraction)", "setting": "in ethanol, 323.15 K", "value": 0.00632}, {"measurement": "solubility (mole fraction)", "setting": "in ethyl acetate, 278.15 K", "value": 0.000678}, {"measurement": "solubility (mole fraction)", "setting": "in ethyl acetate, 283.15 K", "value": 0.000747}, {"measurement": "solubility (mole fraction)", "setting": "in ethyl acetate, 288.15 K", "value": 0.000971}, {"measurement": "solubility (mole fraction)", "setting": "in ethyl acetate, 293.15 K", "value": 0.00116}, {"measurement": "solubility (mole fraction)", "setting": "in ethyl acetate, 298.15 K", "value": 0.00139}, {"measurement": "solubility (mole fraction)", "setting": "in ethyl acetate, 303.15 K", "value": 0.00159}, {"measurement": "solubility (mole fraction)", "setting": "in ethyl acetate, 308.15 K", "value": 0.00185}, {"measurement": "solubility (mole fraction)", "setting": "in ethyl acetate, 313.15 K", "value": 0.00226}, {"measurement": "solubility (mole fraction)", "setting": "in ethyl acetate, 318.15 K", "value": 0.00257}, {"measurement": "solubility (mole fraction)", "setting": "in ethyl acetate, 323.15 K", "value": 0.00334}, {"measurement": "solubility (mole fraction)", "setting": "in isopropanol, 278.15 K", "value": 0.000918}, {"measurement": "solubility (mole fraction)", "setting": "in isopropanol, 283.15 K", "value": 0.00105}, {"measurement": "solubility (mole fraction)", "setting": "in isopropanol, 288.15 K", "value": 0.00128}, {"measurement": "solubility (mole fraction)", "setting": "in isopropanol, 293.15 K", "value": 0.00148}, {"measurement": "solubility (mole fraction)", "setting": "in isopropanol, 298.15 K", "value": 0.00178}, {"measurement": "solubility (mole fraction)", "setting": "in isopropanol, 303.15 K", "value": 0.00195}, {"measurement": "solubility (mole fraction)", "setting": "in isopropanol, 308.15 K", "value": 0.0023}, {"measurement": "solubility (mole fraction)", "setting": "in isopropanol, 313.15 K", "value": 0.00255}, {"measurement": "solubility (mole fraction)", "setting": "in isopropanol, 318.15 K", "value": 0.00291}, {"measurement": "solubility (mole fraction)", "setting": "in isopropanol, 323.15 K", "value": 0.0035}, {"measurement": "solubility (mole fraction)", "setting": "in n-butanol, 278.15 K", "value": 0.000983}, {"measurement": "solubility (mole fraction)", "setting": "in n-butanol, 283.15 K", "value": 0.00102}, {"measurement": "solubility (mole fraction)", "setting": "in n-butanol, 288.15 K", "value": 0.00122}, {"measurement": "solubility (mole fraction)", "setting": "in n-butanol, 293.15 K", "value": 0.00151}, {"measurement": "solubility (mole fraction)", "setting": "in n-butanol, 298.15 K", "value": 0.00172}, {"measurement": "solubility (mole fraction)", "setting": "in n-butanol, 303.15 K", "value": 0.002}, {"measurement": "solubility (mole fraction)", "setting": "in n-butanol, 308.15 K", "value": 0.00249}, {"measurement": "solubility (mole fraction)", "setting": "in n-butanol, 313.15 K", "value": 0.00293}, {"measurement": "solubility (mole fraction)", "setting": "in n-butanol, 318.15 K", "value": 0.00343}, {"measurement": "solubility (mole fraction)", "setting": "in n-butanol, 323.15 K", "value": 0.00437}, {"measurement": "solubility (mole fraction)", "setting": "in n-pentanol, 278.15 K", "value": 0.000403}, {"measurement": "solubility (mole fraction)", "setting": "in n-pentanol, 283.15 K", "value": 0.00051}, {"measurement": "solubility (mole fraction)", "setting": "in n-pentanol, 288.15 K", "value": 0.000602}, {"measurement": "solubility (mole fraction)", "setting": "in n-pentanol, 293.15 K", "value": 0.000779}, {"measurement": "solubility (mole fraction)", "setting": "in n-pentanol, 298.15 K", "value": 0.00101}, {"measurement": "solubility (mole fraction)", "setting": "in n-pentanol, 303.15 K", "value": 0.00136}, {"measurement": "solubility (mole fraction)", "setting": "in n-pentanol, 308.15 K", "value": 0.00152}, {"measurement": "solubility (mole fraction)", "setting": "in n-pentanol, 313.15 K", "value": 0.00191}, {"measurement": "solubility (mole fraction)", "setting": "in n-pentanol, 318.15 K", "value": 0.00255}, {"measurement": "solubility (mole fraction)", "setting": "in n-pentanol, 323.15 K", "value": 0.003}, {"measurement": "solubility (mole fraction)", "setting": "in sec-butanol, 278.15 K", "value": 0.000899}, {"measurement": "solubility (mole fraction)", "setting": "in sec-butanol, 283.15 K", "value": 0.000995}, {"measurement": "solubility (mole fraction)", "setting": "in sec-butanol, 288.15 K", "value": 0.00119}, {"measurement": "solubility (mole fraction)", "setting": "in sec-butanol, 293.15 K", "value": 0.00143}, {"measurement": "solubility (mole fraction)", "setting": "in sec-butanol, 298.15 K", "value": 0.0015}, {"measurement": "solubility (mole fraction)", "setting": "in sec-butanol, 303.15 K", "value": 0.00173}, {"measurement": "solubility (mole fraction)", "setting": "in sec-butanol, 308.15 K", "value": 0.00211}, {"measurement": "solubility (mole fraction)", "setting": "in sec-butanol, 313.15 K", "value": 0.00234}, {"measurement": "solubility (mole fraction)", "setting": "in sec-butanol, 318.15 K", "value": 0.00276}, {"measurement": "solubility (mole fraction)", "setting": "in sec-butanol, 323.15 K", "value": 0.00316}]}
